pIC50: −log10 of the molar value.
Molecular target: T1, human TLR9 (Homo sapiens, UniProt Q9NR96)
T1 sequence (Q9NR96 26-1032): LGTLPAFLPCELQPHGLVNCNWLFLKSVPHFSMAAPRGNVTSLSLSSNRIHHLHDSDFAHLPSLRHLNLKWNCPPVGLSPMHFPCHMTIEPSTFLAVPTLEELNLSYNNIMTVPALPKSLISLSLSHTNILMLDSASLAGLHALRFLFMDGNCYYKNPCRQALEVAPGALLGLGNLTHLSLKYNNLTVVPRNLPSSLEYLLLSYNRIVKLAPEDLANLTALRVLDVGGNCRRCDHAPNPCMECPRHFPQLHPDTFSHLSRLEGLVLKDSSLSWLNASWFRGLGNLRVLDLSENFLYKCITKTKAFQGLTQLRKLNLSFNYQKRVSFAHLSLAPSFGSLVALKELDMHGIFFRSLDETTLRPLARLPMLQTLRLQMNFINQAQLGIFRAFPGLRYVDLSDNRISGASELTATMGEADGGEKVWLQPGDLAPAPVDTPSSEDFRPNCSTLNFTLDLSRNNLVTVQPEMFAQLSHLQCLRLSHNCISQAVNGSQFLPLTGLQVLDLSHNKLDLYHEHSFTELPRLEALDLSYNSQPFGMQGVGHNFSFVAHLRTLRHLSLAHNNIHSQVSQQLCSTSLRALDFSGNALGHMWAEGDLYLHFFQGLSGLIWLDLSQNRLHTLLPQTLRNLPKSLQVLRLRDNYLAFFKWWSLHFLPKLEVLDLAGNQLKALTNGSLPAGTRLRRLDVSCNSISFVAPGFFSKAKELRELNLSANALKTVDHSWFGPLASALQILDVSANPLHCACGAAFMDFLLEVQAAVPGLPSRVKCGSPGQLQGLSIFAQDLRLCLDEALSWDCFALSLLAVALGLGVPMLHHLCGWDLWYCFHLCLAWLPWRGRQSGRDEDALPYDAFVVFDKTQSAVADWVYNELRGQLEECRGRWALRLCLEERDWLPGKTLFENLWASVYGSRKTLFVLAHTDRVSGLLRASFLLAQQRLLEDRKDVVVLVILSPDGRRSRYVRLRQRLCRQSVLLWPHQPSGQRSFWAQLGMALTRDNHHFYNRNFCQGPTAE
Assay: TLR9 inhibition reporter assay (HEK-Blue cells, SEAP reporter)
Assay type: cell-based
Settings: HEK-Blue cells overexpressing human TLR9; stimulated with ODN2006 5 nM; 22 hour incubation; SEAP readout
Description: TLR7/8/9 Inhibition Reporter Assays
HEK-Blue™-cells (Invivogen) overexpressing human TLR7, TLR8 or TLR9 receptors were used for screening inhibitors of these receptors using an inducible SEAP (secreted embryonic alkaline phosphatase) reporter gene under the control of the […] minimal promoter fused to five NF-κB and AP-1-binding sites. Briefly, cells are seeded into Greiner 384 well plates (15000 cells per well for TLR7, 20,000 for TLR8 and 25,000 for TLR9) and then treated with test compounds in DMSO to yield a final dose response concentration range of 0.05 nM-50 μM. After a 30 minute compound pre-treatment at room temperature, the cells are then stimulated with a TLR7 ligand (gardiquimod at a final concentration of 7.5 μM), TLR8 ligand (R848 at a final concentration of 15.9 μM) or TLR9 ligand (ODN2006 at a final concentration of 5 nM) to activate NF-κB and AP-1 which induce the production of SEAP. After a 22 hour incubation at 37° C., 5% CO2, SEAP levels are determined with the addition of HEK-Blue™ Detection reagent (Invivogen), a cell culture medium that allows for detection of SEAP, according to manufacturer's specifications. The percent inhibition is determined as the % reduction in the HEK-Blue signal present in wells treated with agonist plus DMSO alone compared to wells treated with a known inhibitor.

Structure (SMILES) | pIC50
Cc1cc(C2CCN(C3CCN(C4CCC4)CC3)CC2)cn2cc(-c3ccc(S(C)(=O)=O)cc3)nc12 [Example 91, 6-(1′-cyclobutyl-[1,4′-bipiperidin]-4-yl)-8-methyl-2-(4-(methylsulfonyl)phenyl) imidazo[1,2-a]pyridine] | 7.72
Cc1cc(C2CCN(C3CC4CCC(C3)N4CC3CC3)CC2)cn2cc(-c3ccc(S(C)(=O)=O)cc3)nc12 (single isomer, unassigned) [Example 88, 6-(1-(8-(cyclopropylmethyl)-8-azabicyclo[3.2.1]octan-3-yl)piperidin-4-yl)-8-methyl-2-(4-(methylsulfonyl)phenyl) imidazo[1,2-a]pyridine] | 6.92
Cc1cc(C2CCN(C3CC4CCC(C3)N4C(C)C)CC2)cn2cc(-c3ccc(S(C)(=O)=O)cc3)nc12 (single isomer, unassigned) [Example 62, 6-(1-(8-isopropyl-8-azabicyclo[3.2.1]octan-3-yl)piperidin-4-yl)-8-methyl-2-(4-(methylsulfonyl)phenyl)imidazo[1,2-a]pyridine] | 7.01
Cc1cc(C2CCN(C3CC4CCC(C3)N4C3CCC3)CC2)cn2cc(-c3ccc(S(C)(=O)=O)cc3)nc12 (single isomer, unassigned) [Example 84, 6-(1-(8-cyclobutyl-8-azabicyclo[3.2.1]octan-3-yl)piperidin-4-yl)-8-methyl-2-(4-(methylsulfonyl)phenyl)imidazo[1,2-a]pyridine] | 7.68
COc1ccc(-c2cn3cc(C4CC5CCC(C4)N5C4CCN(CC(C)C)CC4)cc(C)c3n2)cc1OC (single isomer, unassigned) [Example 28, 2-(3,4-dimethoxyphenyl)-6-(8-(1-isobutylpiperidin-4-yl)-8-azabicyclo[3.2.1]octan-3-yl)-8-methylimidazo[1,2-a]pyridine] | 8.10
COc1ccc(-c2nc3ccc(C4CCN(C5CCN(C(C)C)CC5)CC4)cn3n2)cc1OC [Example 165, 2-(3,4-dimethoxyphenyl)-6-(1′-isopropyl-[1,4′-bipiperidin]-4-yl)-[1,2,4]triazolo[1,5-a]pyridine] | 6.95
COc1ccc(-c2nc3n(n2)CC(c2ccc(N4CCN(C(C)C)CC4)cc2)CC3C)cc1OC (stereo not drawn) [Example 144, 2-(3,4-dimethoxyphenyl)-6-(4-(4-isopropylpiperazin-1-yl)phenyl)-8-methyl-5,6,7,8-tetrahydro-[1,2,4]triazolo[1,5-a]pyridine] | 5.84
Cc1cc(-c2ccc(N3CCN(C(C)C)CC3)cc2)cn2nc(-c3ccc(S(C)(=O)=O)cc3)nc12 [Example 147, 6-(4-(4-isopropylpiperazin-1-yl)phenyl)-8-methyl-2-(4-(methylsulfonyl)phenyl)-[1,2,4]triazolo[1,5-a]pyridine] | 6.04
CC(C)CN1C2CCC1CC(N1CCC([C@@H]3CCc4nc(-c5ccc(S(C)(=O)=O)cc5)cn4C3)CC1)C2 (single isomer, unassigned) [Example 81] | 8.04
COc1ccc(-c2nc3c(C)cc(C4CC5CCC(C4)N5C4CCN(C(C)C)CC4)cn3n2)cc1OC (stereo not drawn) [Example 156, 2-(3,4-dimethoxyphenyl)-6-(8-(1-isopropylpiperidin-4-yl)-8-azabicyclo[3.2.1]octan-3-yl)-8-methyl-[1,2,4]triazolo[1,5-a]pyridine] | 6.63
CC1CC(c2ccc(N3CC4CCC(C3)N4C(C)C)cc2)Cn2nc(-c3ccc(S(C)(=O)=O)cc3)nc21 (stereo not drawn) [Example 154, 6-(4-(8-isopropyl-3,8-diazabicyclo[3.2.1]octan-3-yl)phenyl)-8-methyl-2-(4-(methylsulfonyl)phenyl)-5,6,7,8-tetrahydro-[1,2,4]triazolo[1,5-a]pyridine] | 5.11
Cc1cc(C2CCN(C3CC4CCC(C3)N4C3CCC3)CC2)cn2cc(-c3ccc(S(C)(=O)=O)cc3)nc12 (single isomer, unassigned) [Example 83, 6-(1-(8-cyclobutyl-8-azabicyclo[3.2.1]octan-3-yl)piperidin-4-yl)-8-methyl-2-(4-(methylsulfonyl)phenyl)imidazo[1,2-a]pyridine] | 7.92
COc1ccc(-c2cn3cc(C4CC5CCC(C4)N5C4CCN(CC(C)C)CC4)cc(C)c3n2)cc1OC (single isomer, unassigned) [Example 29, 2-(3,4-dimethoxyphenyl)-6-(8-(1-isobutylpiperidin-4-yl)-8-azabicyclo[3.2.1]octan-3-yl)-8-methylimidazo[1,2-a]pyridine] | 8.00
COc1ccc(-c2nc3ccc(-c4ccc(N5CC6CCC(C5)N6C(C)C)cc4)cn3n2)cc1OC [Example 166] | 6.20
Cc1cc(C2CCN(C3CC4CCC(C3)N4CC(C)C)CC2)cn2cc(-c3ccc(S(C)(=O)=O)cc3)nc12 (single isomer, unassigned) [Example 86, 6-(1-(8-isobutyl-8-azabicyclo[3.2.1]octan-3-yl)piperidin-4-yl)-8-methyl-2-(4-(methylsulfonyl)phenyl)imidazo[1,2-a]pyridine] | 6.99
CC(C)N1CCN(c2ccc(-c3ccc4nc(-c5ccc(S(C)(=O)=O)cc5)nn4c3)cc2)CC1 [Example 167, 6-(4-(4-isopropylpiperazin-1-yl)phenyl)-2-(4-(methylsulfonyl)phenyl)-[1,2,4]triazolo[1,5-a]pyridine] | 5.79
CS(=O)(=O)c1ccc(-c2cn3cc(C4CCN(C5CCN(C6CC6)CC5)CC4)c(F)cc3n2)cc1 [Example 124, 6-(1′-cyclopropyl-[1,4′-bipiperidin]-4-yl)-7-fluoro-2-(4-(methylsulfonyl)phenyl) imidazo[1,2-a]pyridine] | 6.80
COc1ccc(-c2nc3c(C)cc(-c4ccc(N5CC6CCC(C5)N6C(C)C)cc4)cn3n2)cc1OC [Example 151, 2-(3,4-dimethoxyphenyl)-6-(4-(8-isopropyl-3,8-diazabicyclo[3.2.1]octan-3-yl)phenyl)-8-methyl-[1,2,4]triazolo[1,5-a]pyridine] | 5.86
COCCN1CCN(c2ccc(-c3cc(C)c4nc(-c5ccc(S(C)(=O)=O)cc5)cn4c3)cc2)CC1 [Example 105, 6-(4-(4-(2-methoxyethyl)piperazin-1-yl)phenyl)-8-methyl-2-(4-(methylsulfonyl)phenyl) imidazo[1,2-a]pyridine] | 6.00
Cc1cc(C2CCN(C3CC4CCC(C3)N4CC3CCC3)CC2)cn2cc(-c3ccc(S(C)(=O)=O)cc3)nc12 (single isomer, unassigned) [Example 90, 6-(1-(8-(cyclobutylmethyl)-8-azabicyclo[3.2.1]octan-3-yl)piperidin-4-yl)-8-methyl-2-(4-(methylsulfonyl)phenyl)imidazo[1,2-a]pyridine] | 6.98
Cc1cc(C2CCN(C3CCN(CC4CCC4)CC3)CC2)cn2cc(-c3ccc(S(C)(=O)=O)cc3)nc12 [Example 93, 6-(1′-(cyclobutylmethyl)-[1,4′-bipiperidin]-4-yl)-8-methyl-2-(4-(methylsulfonyl)phenyl)imidazo[1,2-a]pyridine] | 7.08
COc1ccc(-c2nc3c(C)cc(C4CCN(C5CCN(C(C)C)CC5)CC4)cn3n2)cc1OC [Example 158, 2-(3,4-dimethoxyphenyl)-6-(1′-isopropyl-[1,4′-bipiperidin]-4-yl)-8-methyl-[1,2,4]triazolo[1,5-a] pyridine] | 6.82
Cc1cc(-c2ccc(N3CC4CCC(C3)N4C(C)C)cc2)cn2nc(-c3ccc(S(C)(=O)=O)cc3)nc12 [Example 153, 6-(4-(8-isopropyl-3,8-diazabicyclo[3.2.1]octan-3-yl)phenyl)-8-methyl-2-(4-(methylsulfonyl)phenyl)-[1,2,4]triazolo[1,5-a]pyridine] | 6.18
COc1ccc(-c2nc3c(C)cc(C4CC5CCC(C4)N5C4CCN(C5CC5)CC4)cn3n2)cc1OC (stereo not drawn) [Example 155, 6-(8-(1-cyclopropylpiperidin-4-yl)-8-azabicyclo[3.2.1]octan-3-yl)-2-(3,4-dimethoxyphenyl)-8-methyl-[1,2,4]triazolo[1,5-a]pyridine] | 6.67
